Measurements: patent US5041567A, “Antibacterial monic acid derivatives” (Beecham Group plc, priority 1982, dated 1991)
In brackets after ≈: the same amount, converted by molar mass. Where two headings read alike, the source gives them in different places.

Assays:
[1] = system: M. suipneumoniae JF 435; test: MIC against mycoplasma in vitro; assay type: cell-based; conditions: Mesomycoplasma hyopneumoniae, JF435, 144 h
[2] = system: M. suipneumoniae HK(2); test: MIC against mycoplasma in vitro; assay type: cell-based; conditions: Mesomycoplasma hyopneumoniae, 144 h
[3] = system: M. suipneumoniae J2206/183^b; test: MIC against mycoplasma in vitro; assay type: cell-based; conditions: Mesomycoplasma hyopneumoniae, 144 h
[4] = system: M. suipneumoniae PW/C/210; test: MIC against mycoplasma in vitro; assay type: cell-based; conditions: Mesomycoplasma hyopneumoniae, 144 h
[5] = system: M. suipneumoniae LABER; test: MIC against mycoplasma in vitro; assay type: cell-based; conditions: Mesomycoplasma hyopneumoniae, 144 h
[6] = system: M. suipneumoniae UCD 1; test: MIC against mycoplasma in vitro; assay type: cell-based; conditions: Mesomycoplasma hyopneumoniae, UCD1, 144 h
[7] = system: M. suipneumoniae ATCC 25095; test: MIC against mycoplasma in vitro; assay type: cell-based; conditions: Mesomycoplasma hyopneumoniae, ATCC25095, 144 h
[8] = system: M. suipneumoniae NCTC 10110; test: MIC against mycoplasma in vitro; assay type: cell-based; conditions: Mesomycoplasma hyopneumoniae, NCTC10110, 144 h
[9] = system: M. hyorhinis ATCC 23234; test: MIC against mycoplasma in vitro; assay type: cell-based; conditions: Mesomycoplasma hyorhinis, ATCC23234, 144 h
[10] = system: M. hyorhinis ATCC 25021; test: MIC against mycoplasma in vitro; assay type: cell-based; conditions: Mesomycoplasma hyorhinis, ATCC25021, 144 h
[11] = system: M. hyosynoviae ATCC 25591; test: MIC against mycoplasma in vitro; assay type: cell-based; conditions: 144 h
[12] = system: M. dispar NCTC 10125; test: MIC against mycoplasma in vitro; assay type: cell-based; conditions: 144 h
[13] = system: M. pneumoniae ATCC 15492; test: MIC against mycoplasma in vitro; assay type: cell-based; conditions: Mycoplasmoides pneumoniae, ATCC15492, 144 h
[14] = system: E. coli ESS; test: MIC against human bacteria in vitro; assay type: cell-based; conditions: Escherichia coli; E. coli ESS; 5% chocolated horse blood agar, 18 hours; read-out: MIC
[15] = system: Pasteurella multocida 1633; test: MIC against human bacteria in vitro; assay type: cell-based; conditions: Pasteurella multocida 1633; 5% chocolated horse blood agar, 18 hours; read-out: MIC
[16] = system: Haemophilus influenzae Wy21; test: MIC against human bacteria in vitro; assay type: cell-based; conditions: Haemophilus influenzae Wy21; 5% chocolated horse blood agar, 18 hours; read-out: MIC
[17] = system: Bacillus subtilis 6633; test: MIC against human bacteria in vitro; assay type: cell-based; conditions: Bacillus subtilis 6633; 5% chocolated horse blood agar, 18 hours; read-out: MIC
[18] = system: Corynebacterium xerosis 9755; test: MIC against human bacteria in vitro; assay type: cell-based; conditions: Corynebacterium xerosis 9755; 5% chocolated horse blood agar, 18 hours; read-out: MIC
[19] = system: Sarcina lutea 8340; test: MIC against human bacteria in vitro; assay type: cell-based; conditions: Micrococcus luteus; Sarcina lutea 8340; 5% chocolated horse blood agar, 18 hours; read-out: MIC
[20] = system: Staph. aureus Oxford; test: MIC against human bacteria in vitro; assay type: cell-based; conditions: Staphylococcus aureus; Staph. aureus Oxford; 5% chocolated horse blood agar, 18 hours; read-out: MIC
[21] = system: Staph. aureus Russell; test: MIC against human bacteria in vitro; assay type: cell-based; conditions: Staphylococcus aureus; Staph. aureus Russell; 5% chocolated horse blood agar, 18 hours; read-out: MIC
[22] = system: Staph. aureus W2827; test: MIC against human bacteria in vitro; assay type: cell-based; conditions: Staphylococcus aureus; Staph. aureus W2827; 5% chocolated horse blood agar, 18 hours; read-out: MIC
[23] = system: Strep. agalactiae 2788-B; test: MIC against human bacteria in vitro; assay type: cell-based; conditions: Streptococcus agalactiae; Strep. agalactiae 2788-B; 5% chocolated horse blood agar, 18 hours; read-out: MIC
[24] = system: Strep. pneumoniae CN33; test: MIC against human bacteria in vitro; assay type: cell-based; conditions: Streptococcus pneumoniae; Strep. pneumoniae CN33; 5% chocolated horse blood agar, 18 hours; read-out: MIC
[25] = system: S. dublin S7; test: MIC against veterinary bacteria in vitro; conditions: Salmonella enterica, S7, 18 h
Method: (§1) The activity of the compounds of the Examples against various veterinarily important bacteria, was assayed in vitro using two-fold serial dilutions in Diagnostic Sensitivity Test Agar inoculated with 10^4 organisms.

[26] = system: Bord. bronchiseptica B08; test: MIC against veterinary bacteria in vitro; conditions: Bordetella bronchiseptica, B08, 18 h
Method: as §1

[27] = system: Past. multocida PA1; test: MIC against veterinary bacteria in vitro; conditions: Pasteurella multocida, PA1, 18 h
Method: as §1

[28] = system: Past. multocida PA2; test: MIC against veterinary bacteria in vitro; conditions: Pasteurella multocida, PA2, 18 h
Method: as §1

[29] = system: Past. haemolytica PA5; test: MIC against veterinary bacteria in vitro; conditions: Mannheimia haemolytica, PA5, 18 h
Method: as §1

[30] = system: Erysipelothrix rhusiopathiae NCTC 8163; test: MIC against veterinary bacteria in vitro; conditions: Erysipelothrix rhusiopathiae, NCTC8163, 18 h
Method: as §1

[31] = system: Corynebacterium pyogenes CY1; test: MIC against veterinary bacteria in vitro; conditions: CY1, 18 h
Method: as §1

[32] = system: Staph. aureus B4 (pen. resistant); test: MIC against veterinary bacteria in vitro; conditions: Staphylococcus aureus, 18 h
Method: as §1

[33] = system: Staph. aureus Oxford; test: MIC against veterinary bacteria in vitro; conditions: Staphylococcus aureus, 18 h
Method: as §1

[34] = system: Strep. suis (group D) SPS11; test: MIC against veterinary bacteria in vitro; conditions: Streptococcus suis, 18 h
Method: as §1

[35] = system: Strep. agalactiae SPA1; test: MIC against veterinary bacteria in vitro; conditions: Streptococcus agalactiae, SPA1, 18 h
Method: as §1

[36] = M. dispar NCTC 10125, 6 days, 37° C., read-out: MIC
[37] = M. pneumoniae ATCC 15492, 6 days, 37° C., read-out: MIC
[38] = M. suipneumoniae JF 435, 6 days, 37° C., read-out: MIC
[39] = M. suipneumoniae HK(2), 6 days, 37° C., read-out: MIC
[40] = M. suipneumoniae J2206/183^b, 6 days, 37° C., read-out: MIC
[41] = M. suipneumoniae LABER, 6 days, 37° C., read-out: MIC
[42] = M. suipneumoniae UCD 1, 6 days, 37° C., read-out: MIC
[43] = M. suipneumoniae ATCC 25095, 6 days, 37° C., read-out: MIC
[44] = M. suipneumoniae NCTC 10110, 6 days, 37° C., read-out: MIC
[45] = M. hyosynoviae ATCC 25591, 6 days, 37° C., read-out: MIC

Row | Structure (SMILES) | MIC [14] | MIC [15] | MIC [16] | MIC [17] | MIC [18] | MIC [19] | MIC [20] | MIC [21] | MIC [22] | MIC [23] | MIC [24] | MIC [25] | MIC [26] | MIC [27] | MIC [28] | MIC [29] | MIC [30] | MIC [31] | MIC [32] | MIC [33] | also measured
1 | C/C(=C\c1ncc(C)o1)C[C@@H]1OC[C@H](C[C@@H]2O[C@H]2[C@@H](C)[C@H](C)O)[C@@H](O)[C@H]1O [Example 14, 5-Methyl-2-(1-normon-2-yl) oxazole A] | 32 µg/mL (≈ 83.9 µM) | 16 µg/mL (≈ 41.9 µM) | 2 µg/mL (≈ 5.24 µM) | 4 µg/mL (≈ 10.5 µM) | > 128 µg/mL | > 128 µg/mL | 16 µg/mL (≈ 41.9 µM) | 16 µg/mL (≈ 41.9 µM) | 16 µg/mL (≈ 41.9 µM) | 32 µg/mL (≈ 83.9 µM) | 32 µg/mL (≈ 83.9 µM) | > 80 µg/mL | > 80 µg/mL | 10 µg/mL (≈ 26.2 µM) | 10 µg/mL (≈ 26.2 µM) | > 80 µg/mL | > 80 µg/mL | > 80 µg/mL | 10 µg/mL (≈ 26.2 µM) | 10 µg/mL (≈ 26.2 µM) | MIC [1]: 5 µg/mL (≈ 13.1 µM); MIC [2]: 5 µg/mL (≈ 13.1 µM); MIC [3]: 5 µg/mL (≈ 13.1 µM); MIC [4]: 2.5 µg/mL (≈ 6.55 µM); MIC [5]: 2.5 µg/mL (≈ 6.55 µM); MIC [6]: 5 µg/mL (≈ 13.1 µM); MIC [7]: 2.5 µg/mL (≈ 6.55 µM); MIC [8]: 5 µg/mL (≈ 13.1 µM); MIC [9]: 2.5 µg/mL (≈ 6.55 µM); MIC [10]: 2.5 µg/mL (≈ 6.55 µM); MIC [11]: 5 µg/mL (≈ 13.1 µM); MIC [12, 36]: 0.5 µg/mL (≈ 1.31 µM); MIC [13, 37]: > 10 µg/mL; MIC [34]: > 80 µg/mL; MIC [35]: > 80 µg/mL
2 | C/C(=C\c1ncc(-c2ccc(C=O)cc2)o1)C[C@@H]1OC[C@H](C[C@@H]2O[C@H]2[C@@H](C)[C@H](C)O)[C@@H](O)[C@H]1O [Example 15, 5-p-Formylphenyl-2-(1-normon-2-yl) oxazole A] | 16 µg/mL (≈ 33.9 µM) | 32 µg/mL (≈ 67.9 µM) | 4 µg/mL (≈ 8.48 µM) | 2 µg/mL (≈ 4.24 µM) | > 128 µg/mL | > 128 µg/mL | 2 µg/mL (≈ 4.24 µM) | 8 µg/mL (≈ 17 µM) | 8 µg/mL (≈ 17 µM) | 8 µg/mL (≈ 17 µM) | 8 µg/mL (≈ 17 µM) | > 80 µg/mL | 80 µg/mL (≈ 170 µM) | 10 µg/mL (≈ 21.2 µM) | < 0.039 µg/mL | 80 µg/mL (≈ 170 µM) | > 80 µg/mL | > 80 µg/mL | 2.5 µg/mL (≈ 5.3 µM) | 1.25 µg/mL (≈ 2.65 µM) | MIC [1, 38]: 0.5 µg/mL (≈ 1.06 µM); MIC [2, 39]: 0.5 µg/mL (≈ 1.06 µM); MIC [3, 40]: 0.5 µg/mL (≈ 1.06 µM); MIC [4]: 0.25 µg/mL (≈ 0.53 µM); MIC [5, 41]: 0.5 µg/mL (≈ 1.06 µM); MIC [6, 42]: 0.5 µg/mL (≈ 1.06 µM); MIC [7, 43]: 0.5 µg/mL (≈ 1.06 µM); MIC [8, 44]: 0.5 µg/mL (≈ 1.06 µM); MIC [9]: 0.25 µg/mL (≈ 0.53 µM); MIC [10]: 0.25 µg/mL (≈ 0.53 µM); MIC [11, 45]: 0.5 µg/mL (≈ 1.06 µM); MIC [12]: 0.1 µg/mL (≈ 0.212 µM); MIC [13]: 1 µg/mL (≈ 2.12 µM); MIC [34]: 20 µg/mL (≈ 42.4 µM); MIC [35]: 1.25 µg/mL (≈ 2.65 µM)
3 | COC(=O)c1ccc(-c2cnc(/C=C(\C)C[C@@H]3OC[C@H](C[C@@H]4O[C@H]4[C@@H](C)[C@H](C)O)[C@@H](O)[C@H]3O)o2)cc1 [Example 16, 5-p-Methoxycarbonylphenyl-2-(1-normon-2-yl) oxazole A] | 32 µg/mL (≈ 63.8 µM) | 16 µg/mL (≈ 31.9 µM) | 2 µg/mL (≈ 3.99 µM) | 1 µg/mL (≈ 1.99 µM) | > 64 µg/mL | > 64 µg/mL | 4 µg/mL (≈ 7.97 µM) | 4 µg/mL (≈ 7.97 µM) | 4 µg/mL (≈ 7.97 µM) | 4 µg/mL (≈ 7.97 µM) | 4 µg/mL (≈ 7.97 µM) | > 80 µg/mL | > 80 µg/mL | 40 µg/mL (≈ 79.7 µM) | < 0.039 µg/mL | > 80 µg/mL | 80 µg/mL (≈ 159 µM) | > 80 µg/mL | 5 µg/mL (≈ 9.97 µM) | 1.25 µg/mL (≈ 2.49 µM) | MIC [1, 38]: 0.5 µg/mL (≈ 0.997 µM); MIC [2, 39]: 0.5 µg/mL (≈ 0.997 µM); MIC [3, 40]: 0.5 µg/mL (≈ 0.997 µM); MIC ([4]; M. suipneumoniae PW/C/210, 6 days, 37° C., read-out: MIC): 0.25 µg/mL (≈ 0.498 µM); MIC [5, 41]: 0.25 µg/mL (≈ 0.498 µM); MIC [6, 42]: 0.5 µg/mL (≈ 0.997 µM); MIC [7, 43]: 0.25 µg/mL (≈ 0.498 µM); MIC [8, 44]: 0.5 µg/mL (≈ 0.997 µM); MIC ([9]; M. hyorhinis ATCC 23234, 6 days, 37° C., read-out: MIC): 0.25 µg/mL (≈ 0.498 µM); MIC ([10]; M. hyorhinis ATCC 25021, 6 days, 37° C., read-out: MIC): 0.25 µg/mL (≈ 0.498 µM); MIC [11, 45]: 0.5 µg/mL (≈ 0.997 µM); MIC [12, 36]: 0.1 µg/mL (≈ 0.199 µM); MIC [13, 37]: 1 µg/mL (≈ 1.99 µM); MIC [34]: 20 µg/mL (≈ 39.9 µM); MIC [35]: 1.25 µg/mL (≈ 2.49 µM)
